Data as given in ChEMBL document CHEMBL1201862, “PubChem BioAssay data set” (2004).
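Following 48 hours of exposure in 96-well plates, responses at five concentrations were used to interpolate endpoints linearly. The concentration for 50% growth inhibition is given as GI50.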 Calls of active or inactive are those of the source. Cut-off read from the data, not from the text of the source: active = GI50 up to about 1.1 µM and inactive = higher.

How the values were obtained:
Experiment in all cases: NCI tumour cell line growth inhibition, 48 h
SN12C = test system: SN12C
KM12 = test system: KM12
HCC 2998 = test system: HCC 2998
Malme-3M = test system: Malme-3M
OVCAR-3 = test system: OVCAR-3
SW-620 = test system: SW-620
NCI-H226 = test system: NCI-H226
NCI-H23 = test system: NCI-H23
DLD-1 = test system: DLD-1
CCRF-CEM = test system: CCRF-CEM
HCT-116 = test system: HCT-116
UO-31 = test system: UO-31
K562 = test system: K562
KM-20L2 = test system: KM-20L2
ACHN = test system: ACHN
A498 = test system: A498
RXF 393 = test system: RXF 393
SK-MEL-2 = test system: SK-MEL-2

Structure (SMILES) | GI50 (SN12C) | GI50 (KM12) | GI50 (HCC 2998) | GI50 (Malme-3M) | GI50 (OVCAR-3) | GI50 (SW-620) | GI50 (NCI-H226) | GI50 (NCI-H23) | GI50 (DLD-1) | GI50 (CCRF-CEM) | GI50 (HCT-116) | GI50 (UO-31) | GI50 (K562) | GI50 (KM-20L2) | GI50 (ACHN) | GI50 (A498) | GI50 (RXF 393) | GI50 (SK-MEL-2)
COC(=O)C1=CO[C@@H](OC2CC(CO)C(O)C(O)C2O)[C@@H]2[C@@H](C)[C@@H](OC(=O)/C=C/c3ccccc3)[C@@H](O)[C@H]12.COC(=O)C1=CO[C@@H](OC2CC(CO)C(O)C(O)C2O)[C@@H]2[C@@H](C)[C@@H](OC(=O)c3ccccc3)[C@@H](O)[C@H]12 (stereo partly specified) | > 100 µM (inactive) | > 100 µM (inactive) | > 100 µM (inactive) | > 100 µM (inactive) | > 100 µM (inactive) | > 100 µM (inactive) | > 100 µM (inactive) | > 100 µM (inactive) | > 100 µM (inactive) | > 100 µM (inactive) | > 100 µM (inactive) | > 100 µM (inactive) | > 100 µM (inactive) | > 100 µM (inactive) | > 100 µM (inactive) | > 100 µM (inactive) | – | –
O=C1/C(=C/c2cccc([N+](=O)[O-])c2)COc2ccc(Br)cc21 | – | > 100 µM (inactive) | > 100 µM (inactive) | > 100 µM (inactive) | > 100 µM (inactive) | 42.4 µM (inactive) | – | > 100 µM (inactive) | > 100 µM (inactive) | 13.6 µM (inactive) | 32.6 µM (inactive) | 95.5 µM (inactive) | 22.9 µM (inactive) | > 100 µM (inactive) | > 100 µM (inactive) | > 100 µM (inactive) | > 100 µM (inactive) | > 100 µM (inactive)
COc1ccccc1NC(=O)C1=C(C)NC(C)=C(C(=O)Nc2ccccc2OC)C1c1ccc(N(C)C)cc1 | 26.9 µM (inactive) | 21.6 µM (inactive) | 14.5 µM (inactive) | 36.1 µM (inactive) | 19.1 µM (inactive) | 36.3 µM (inactive) | 19.6 µM (inactive) | 21.3 µM (inactive) | 17.9 µM (inactive) | 19.3 µM (inactive) | 25.4 µM (inactive) | 36 µM (inactive) | 18.9 µM (inactive) | 23.7 µM (inactive) | 33 µM (inactive) | 32.8 µM (inactive) | 21.7 µM (inactive) | 19.7 µM (inactive)
O=C(Cc1cc[n+]([O-])cc1)C(=O)Nc1cc(Cl)c(Cl)cc1Cl | – | > 100 µM (inactive) | > 100 µM (inactive) | > 100 µM (inactive) | > 100 µM (inactive) | > 100 µM (inactive) | – | > 100 µM (inactive) | > 100 µM (inactive) | > 100 µM (inactive) | > 100 µM (inactive) | > 100 µM (inactive) | > 100 µM (inactive) | > 100 µM (inactive) | > 100 µM (inactive) | > 100 µM (inactive) | > 100 µM (inactive) | > 100 µM (inactive)
C[C@]12CCC(=O)C=C1CC[C@@H]1[C@@H]2[C@@H](O)C[C@@]2(C)[C@H]1CC[C@]2(O)C(=O)COC(=O)CCC1CCCC1 [HYDROCORTISONE CYPIONATE] | 0.693 µM (active) | > 100 µM (inactive) | > 100 µM (inactive) | > 100 µM (inactive) | > 100 µM (inactive) | > 100 µM (inactive) | 0.0728 µM (active) | > 100 µM (inactive) | > 100 µM (inactive) | 95.9 µM (inactive) | > 100 µM (inactive) | > 100 µM (inactive) | – | > 100 µM (inactive) | > 100 µM (inactive) | > 100 µM (inactive) | > 100 µM (inactive) | –
O=C(Nc1cccs1)c1c(O)[nH]c(=S)[nH]c1=O | > 100 µM (inactive) | > 100 µM (inactive) | – | – | > 100 µM (inactive) | > 100 µM (inactive) | > 100 µM (inactive) | > 100 µM (inactive) | > 100 µM (inactive) | > 100 µM (inactive) | – | > 100 µM (inactive) | > 100 µM (inactive) | > 100 µM (inactive) | > 100 µM (inactive) | > 100 µM (inactive) | – | > 100 µM (inactive)
CC(=O)NNc1nc(C)c(C(=O)NNC(=O)C(=O)Nc2c(C)cccc2C(C)C)s1 | > 100 µM (inactive) | 95.7 µM (inactive) | > 100 µM (inactive) | 59.3 µM (inactive) | 36.9 µM (inactive) | 55.3 µM (inactive) | 79.4 µM (inactive) | > 100 µM (inactive) | – | 34.5 µM (inactive) | 84.1 µM (inactive) | > 100 µM (inactive) | 46.7 µM (inactive) | > 100 µM (inactive) | 60.1 µM (inactive) | 51.4 µM (inactive) | – | > 100 µM (inactive)
CCOC(=O)C1=C(OC(OCC)C(C)[Se]c2ccccc2)CCC1 (stereo unspecified) | 14.6 µM (inactive) | 59 µM (inactive) | 78.3 µM (inactive) | 28.1 µM (inactive) | 14.7 µM (inactive) | – | 16.6 µM (inactive) | 12.4 µM (inactive) | 19.3 µM (inactive) | 16.5 µM (inactive) | 18.9 µM (inactive) | 24.7 µM (inactive) | 42.8 µM (inactive) | 29.2 µM (inactive) | 26.9 µM (inactive) | > 100 µM (inactive) | 15.7 µM (inactive) | > 100 µM (inactive)
COCC1N=C(c2cc(OC)c(OC)c(OC)c2-c2cc3c(cc2[C@H](C)O)OCO3)O[C@H]1c1ccccc1 (stereo partly specified) | 46.5 µM (inactive) | 52.6 µM (inactive) | > 100 µM (inactive) | – | 47.4 µM (inactive) | > 100 µM (inactive) | > 100 µM (inactive) | 87.7 µM (inactive) | 83.6 µM (inactive) | > 10 µM (inactive) | 44.6 µM (inactive) | 58.6 µM (inactive) | > 10 µM (inactive) | > 100 µM (inactive) | 40.7 µM (inactive) | – | – | 36.7 µM (inactive)
CC(=O)OC1COC(N2C(=O)/C(=N\NC(N)=S)c3cc(Br)ccc32)C(OC(C)=O)C1OC(C)=O (stereo unspecified) | > 100 µM (inactive) | 39.4 µM (inactive) | > 100 µM (inactive) | 32.7 µM (inactive) | 51.5 µM (inactive) | 77.8 µM (inactive) | > 100 µM (inactive) | 67.9 µM (inactive) | 42.2 µM (inactive) | 5.77 µM (inactive) | 27.2 µM (inactive) | – | 48 µM (inactive) | > 100 µM (inactive) | 60.3 µM (inactive) | – | 63.5 µM (inactive) | > 100 µM (inactive)
COc1cc2c(c3oc(-c4ccc5c(c4)OCO5)c(O)c(=O)c13)CCC(C)(C)O2 | > 100 µM (inactive) | > 100 µM (inactive) | > 100 µM (inactive) | – | > 100 µM (inactive) | > 100 µM (inactive) | > 100 µM (inactive) | > 100 µM (inactive) | > 100 µM (inactive) | 79.8 µM (inactive) | – | > 100 µM (inactive) | > 100 µM (inactive) | – | – | > 100 µM (inactive) | – | > 100 µM (inactive)
NC(=O)N/N=C/C(/C=N/NC(N)=O)[N+](=O)[O-] | > 100 µM (inactive) | > 100 µM (inactive) | – | > 100 µM (inactive) | > 100 µM (inactive) | > 100 µM (inactive) | > 100 µM (inactive) | > 100 µM (inactive) | > 100 µM (inactive) | > 100 µM (inactive) | > 100 µM (inactive) | – | > 100 µM (inactive) | > 100 µM (inactive) | > 100 µM (inactive) | > 100 µM (inactive) | > 100 µM (inactive) | > 100 µM (inactive)
Cc1ccccc1/N=N/C(C(=O)c1ccccc1)C(=O)c1ccccc1 | 20 µM (inactive) | 29.7 µM (inactive) | 40.8 µM (inactive) | 31.7 µM (inactive) | 24.9 µM (inactive) | 25.9 µM (inactive) | 11.7 µM (inactive) | 18.3 µM (inactive) | 30.8 µM (inactive) | 9.46 µM (inactive) | 16.1 µM (inactive) | 17.2 µM (inactive) | 22.6 µM (inactive) | 27.7 µM (inactive) | 27.4 µM (inactive) | 39 µM (inactive) | – | 19.7 µM (inactive)
COC(=O)C(=Cc1cc(OC)c(OC)c(OC)c1-c1cc2c(cc1C(C)=O)OCO2)C(=O)OC | 27.7 µM (inactive) | 32.2 µM (inactive) | 40.3 µM (inactive) | 38.7 µM (inactive) | 26.5 µM (inactive) | 46.1 µM (inactive) | 50.9 µM (inactive) | 34.7 µM (inactive) | 26.1 µM (inactive) | 30.6 µM (inactive) | 32.2 µM (inactive) | – | 37.6 µM (inactive) | 34.3 µM (inactive) | 46.8 µM (inactive) | – | 33.7 µM (inactive) | 32.4 µM (inactive)
CCCNC1=C(C(=O)OCC)C(=O)CO1 | > 100 µM (inactive) | – | > 100 µM (inactive) | > 100 µM (inactive) | > 100 µM (inactive) | > 100 µM (inactive) | > 100 µM (inactive) | > 100 µM (inactive) | > 100 µM (inactive) | > 100 µM (inactive) | > 100 µM (inactive) | > 100 µM (inactive) | > 100 µM (inactive) | > 100 µM (inactive) | > 100 µM (inactive) | > 100 µM (inactive) | > 100 µM (inactive) | > 100 µM (inactive)
CCCN(CCCC(NC(C)=O)C(=O)NCc1ccccc1)C(=O)NCCCl (stereo unspecified) | > 100 µM (inactive) | > 100 µM (inactive) | > 100 µM (inactive) | > 100 µM (inactive) | > 100 µM (inactive) | > 100 µM (inactive) | > 100 µM (inactive) | > 100 µM (inactive) | > 100 µM (inactive) | > 100 µM (inactive) | > 100 µM (inactive) | > 100 µM (inactive) | > 100 µM (inactive) | > 100 µM (inactive) | > 100 µM (inactive) | – | > 100 µM (inactive) | > 100 µM (inactive)
